In one series the test system is male ddY mice. In kind it is in vivo. Conditions: 1 g/kg, five male ddY mice, observed for one week. An excerpt:
Five male ddY mice weighting about 25 g were orally administered once or intraperitoneally injected once with 1 g/kg of sodium (S)-5-hydroxydecanoate.

Series [1] relates to ATP regulated K⁺ channels. The series is described as follows: Effect on ATP regulated K⁺ channels in guinea-pig cardiac cells (single channel recording, inside-out patch clamp, opening probability). It is filed as cell-based. The following applies: for Inhibition rate (%): Dose 3x10⁻⁴ M, single guinea-pig cardiac cells, inside-out patch, opening probability at 0 mV membrane potential. The protocol: According to the method described by Kakei, M., et al., ( J. Physiol., 363 441-462, 1985 ), single cardiac cells were prepared. Guinea-pigs were anesthetized with an intraperitoneally injection of pentobarbital sodium with 30 mg/kg and the chest was opened under artificial respiration. The aorta was cannulated in situ to perfuse the coronary arteries with Tyrode solution (NaCl 136.1, KCl 5.4, CaCl₂ 1.8, MgCl₂ 0.5, NaH₂PO₄ 0.33, glucose 5.5, N-2-hydroxyethylpiperazine-N′-2-ethanesulfonic acid (HEPES) 5.0, each in mM, and the pH was adjusted to 7.4 with NaOH), then the heart was dissected out and mounted on Langendorff apparatus to perfuse. After blood was washed out by Tyrode solution, the heart was perfused with the 100 ml of Ca²⁺-free Tyrode solution and then with Ca²⁺-free Tyrode solution containing 0.17 mg/ml collagenase for 5-20 minutes. Subsequently, the enzyme was washed out from the heart with the 100 ml of KB solution (taurine 10, oxalic acid 10, glutamic acid 80, KCl 25, KH₂PO₄ 10, HEPES 10, glucose 11, ethyleneglycolbis(β-aminoethylether)-N,N′-tetraacetic acid (EGTA) 0.5, each in mM, and the pH was adjusted to 7.4 with KOH) and the heart was stored in KB solution at 4°C for at least 1 hour. Before electrical recording, a part of ventricular muscle was dissected and was shaken in recording chamber (0.7 ml) filled with Tyrode solution to disperse each cells. The method of single channel electrical recording was essentially the same as described by Hamill, A., et al., (Pflugers Arch., 391 85-100, 1981 ). Glass electrodes were made from Pyrex glass capillaries by use of a puller (2 - 10 MΩ) and were heated to polish just before use. An electrode solution was KCl 5.4, NaCl 144.6, CaCl₂ 2, HEPES 5 (each in mM) and the pH was adjusted to 7.4 with NaOH. After dispersed cells sank and adhered to the bottom of recording chamber, high K⁺ solution (KCl 140, MgCl₂ 1.0, KH₂PO₄ 0.5, EGTA 1.0, HEPES 5.0, each in mM, and the pH was adjusted to 7.4 with KOH) was perfused at flow rate of 2 - 3 ml/minute. After established a high seal resistance (5 - 20 GΩ) obtained by attaching an electrode to a cell membrane and applying suction (0 - -50 cm H₂O), a channel current was detected by inside-out configuration by use of a patch clamp amplifier (8900, DAGAN) at a filter setting of 1 KHz. A channel current and a membrane potential were monitored by an oscilloscope and were recorded by a datarecorder. An opening probability, that is a ratio of channel opening period to recording period, were analyzed by using a p-CLAMP (AXON) at 0 mV of a membrane potential. Compounds were dissolved in high K⁺ solution to be perfused.
On the technique in general: Patch clamp records ionic current or voltage across a cell membrane.

The values that follow come from EP0410446A1, “(S)-5-hydroxydecanoic acid and its therapeutic composition” (MOCHIDA PHARMACEUTICAL CO., LTD., priority 1989, dated 1991).

Like-named read-outs stand apart in the source and are kept apart here.

Regarding `CCCCC[C@H](O)CCCC(=O)[O-].[Na+]` [(S)-5-HD, sodium (S)-5-hydroxydecanoate], the “Acute toxicity (abnormality, death)” value in the series with male ddY mice (intraperitoneally injected once) was “no abnormality occurred and no animal died”; in the series with male ddY mice (orally administered once) it was “no abnormality occurred and no animal died”. In addition, the “Inhibition rate (%)” value in series [1] was 69%. The “inhibitory effect on ATP regulated K⁺ channels compared with racemate” value in series [1] (comparison of the values in table 1, 3x10⁻⁴ M) was “about twice as good as racemate”.
`CCCCCC(O)CCCC(=O)[O-].[Na+]` (racemic) [(R,S)-5-HD, Sodium 5-hydroxydecanoate]: the “Inhibition rate (%)” value in series [1] is listed as 30%.
In the case of `CCCCC[C@@H](O)CCCC(=O)[O-].[Na+]` [(R)-5-HD, Sodium 5-hydroxydecanoate], the “Inhibition rate (%)” value in series [1] is recorded as 10%. Also, in series [1] (summary of table 1, 3x10⁻⁴ M), the “activity on ATP regulated K⁺ channels (in words)” value was “few activity”.
